Data taken from US8450479B2, “3-substituted-4-oxo-3,4-dihydro-imidazo[5,1-d][1,2,3,5-tetrazine-8-carboxylic acid amides and their use” (Pharminox Limited, priority 2007, dated 2013).
Where “and” joins values, the source holds several entries; their conditions need not be identical. Equal values may be shown once. Read-outs that look alike come from different tables or passages of the source.

Legend:
Assay type in all cases: cell-based
[1] = tested on: Colon HT29 (MMR proficient); experiment: MTT assay for 7-day toxicity assay; details: Homo sapiens, HT-29, 168 h, Colon HT29 (MMR proficient); 7-day MTT; single determinations; read-out: GI50
Protocol: (§1) The cell culture techniques were carried out in a Class II microbiological safety cabinet which was swabbed with 70% IMS in distilled water before each use. Glioma cells were routinely cultured in Costar tissue culture flasks in RPMI 1640 liquid medium (containing 0.3 g/L L-glutamine and 2 g/L sodium bicarbonate) supplemented with 10% heat inactivated FBS (55-59° C.) for 1 hour to denature complement proteins which would otherwise evoke a cellular immune response resulting in cell lysis, 1% non-essential amino acids, 50 μg/mL gentamicin and 400 μg/mL G418 (vector selected reagent). Colorectal and melanoma cells were maintained in RPMI 1640 supplemented with 10% FBS. MRC-5 cells were cultured in EMEM. Cells were grown in a humidified incubator containing 5% CO2 at 37° C. Cells were sub-cultured when growth exceeded approximately 80% confluence, normally twice weekly. The medium was aspirated from the flask and approximately 0.8 mL trypsin-EDTA 1× solution added. The cells were re-incubated at 37° C. until they visibly detached from the flask. The cell suspension was then re-suspended in 5 mL medium and 0.5-1 mL of the cell suspension was transferred to a new flask (25 cm^2) with 7 mL culture medium. The cells were further incubated at 37° C. incubator. Cells were disposed after passage nearly 30 times in order to minimize phenotypic drift. New batches of cells were taken from liquid nitrogen storage by thawing rapidly (37° C. water bath) and re-suspension in a 25 cm^2 flask with 10 mL of culture medium. Two passages were allowed to resume normal growth. For long-term maintenance, viable cells at 60-80% confluence were detached by minimum amount of trypsin/EDTA and re-suspended in sterile filtered freezing medium (95% FBS, 5% DMSO), transferred to sterile cryogenic vials, and frozen overnight at −20° C. followed by −80° C. for 1-2 days and stored in liquid nitrogen for long term storage.
(§2) Most test compounds, including temozolomide, were prepared as stock solution (100 mM) in DMSO and stored at −20° C. for not more than 6 months.
(§3) This assay was first described in Mosmann, T., 1983, “Rapid colorimetric assay for cellular growth and survival: Application to proliferation and cytotoxicity assays”, Journal of Immunological Methods, Vol. 65, Nos. 1-2, pp. 55-63.
(§4) Glioma cell lines, SNB19 and U373, both MGMT transfected (i.e., SNB19M and U373M) and vector controls (i.e., SNB19V and U373V); colorectal carcinoma cell lines, HCT116, HT29, and DLD1; melanoma cell line, SKMEL-28; breast cell line, MCF-7; and normal human fetal lung fibroblast cell line, MRC-5; were harvested at 60-80% confluence—during the logarithmic phase of growth.
(§5) Following harvesting, cells in suspension were gently syringed through a 23 gauge needle to obtain a near-single cell suspension. The desired cell seeding densities were used and added into 96-well plates in 180 μL culture medium if only one test compound was to be added, or 160 μL if two test compounds were to be added in combination, which were allowed to attach at 37° C. (5% CO2) overnight. For the 7 day assay, the cell seeding density for different cell lines was as follows: SNB19V, SNB19M: 650 cells/well; U373V, U373M: 650 cells/well; SNB19VR, U373VR: 650 cells/well; HCT116, DLD-1, SKMEL-28, MRC-5, MCF-7: 400 cells/well.
(§6) The two peripheral lanes were used as blank wells (cell free) and filled with 200 μL of medium in order to minimise medium evaporation from the plate. A separate time zero (T0) plate was set up alongside other plates. Serial dilutions in tissue culture medium of a 100 mM stock of test compound in DMSO were prepared immediately before each assay to ten times the final concentrations required, and then 20 μL was added to each well (200 μL total media per well) to achieve final concentrations of 0.5 μM, 1 μM, 5 μM, 10 μM, 50 μM, 100 μM, 500 μM, and 1000 μM. A minimum of four wells received the same test compound concentration. […]

[2] = tested on: Colon HCT116 (MMR mutated); experiment: MTT assay for 7-day toxicity assay; details: Colon HCT116 (MMR mutated), 7-day MTT, single determinations, read-out: GI50
Protocol: as §1, §2, §3, §4, §5, §6

[3] = tested on: Melanoma SKMEL-28 (MMR proficient); experiment: MTT assay for 7-day toxicity assay; details: Homo sapiens, SK-MEL-28, 168 h, Melanoma SKMEL-28 (MMR proficient); 7-day MTT; single determinations; read-out: GI50
Protocol: as §1, §2, §3, §4, §5, §6

[4] = tested on: Normal Human Fetal Lung Fibroblast MRC-5; experiment: MTT assay for 7-day toxicity assay; details: Normal Human Fetal Lung Fibroblast MRC-5, 7-day MTT, single determinations, read-out: GI50
Protocol: as §1, §2, §3, §4, §5, §6

Colon DLD1 = experiment: MTT assay for 7-day toxicity assay; details: Homo sapiens, DLD-1, 168 h; Colon DLD1; 7-day MTT; single determinations; read-out: GI50
Protocol: as §1, §2, §3, §4, §5, §6

[5] = tested on: Glioma SNB19VR (MGMT−) (TMZ resistant); experiment: MTT assay for 7-day toxicity assay; details: Glioma SNB19VR (MGMT−, TMZ resistant), 7-day MTT, single determinations, read-out: GI50
Protocol: as §1, §2, §3, §4, §5, §6

[6] = tested on: glioma MGMT− and MGMT+ cell lines; experiment: MTT assay, glioma lines as a whole; details: for activity in words: glioma MGMT− and MGMT+ cell lines
Excerpt: as §3, §4, §5
(§7) The two peripheral lanes were used as blank wells (cell free) and filled with 200 μL of medium in order to minimise medium evaporation from the plate. A separate time zero (T0) plate was set up alongside other plates. Serial dilutions in tissue culture medium of a 100 mM stock of test compound in DMSO were prepared immediately before each assay to ten times the final concentrations required, and then 20 μL was added to each well (200 μL total media per well) to achieve final concentrations of 0.5 μM, 1 μM, 5 μM, 10 μM, 50 μM, 100 μM, 500 μM, and 1000 μM. A minimum of four wells received the same test compound concentration. To control wells, including those in the T0 plate, 20 μL of medium was added. Previous assays had been carried out to verify that cell viability was not affected by the amount of DMSO added into the test compound-treated wells. A separate plate treated in the same way, but free of test compound, was used as a measure of cell viability at the time of drug addition (day 0).
(§8) After incubation at 37° C., 5% CO2 for 7 days (or immediately for the day 0 plate), cell viability was quantified using the MTT assay. 50 μL of sterile filtered MIT (3-(4,5-dimethylthiazol-2-yl)-2,5-diphenyltetrazolium bromide) (2 mg/mL in phosphate buffered saline) were added to each well (final concentration 0.4 mg/mL) and the plates were re-incubated for 4 hours to allow metabolic conversion of MTT by dehydrogenases in viable cells to insoluble formazan crystals. The medium and any unconverted MTT was aspirated, 150 μL of DMSO was added to each well, and the plates were shaken on a plate shaker (Stuart Scientific 503) to ensure complete formazan solubilisation.
The intensity of absorbance is directly proportional to cell viability. A linear relationship exists between cell number and the amount of formazan and so the mean absorbance determined for each well of the same concentration can be used as a quantitative measure of viable cells compared to the controls. A graph of absorbance against drug concentration was plotted and the test compound concentration (GI50) causing 50% inhibition of control cell growth (absorbance increase from day 0) was calculated by interpolation.

Glioma SNB19V (MGMT−) = experiment: MTT assay for 7-day toxicity assay; details: Glioma SNB19V (MGMT−), 7-day MTT, single determinations
Protocol: as §1, with “Glioma cells were routinely cultured in Costar tissue culture flasks in RPMI 1640 liquid medium (containing 0.3 g/L L-glutamine and 2 g/L sodium bicarbonate) supplemented with 10% heat inactivated FBS (55-59° C.) for 1 hour to denature complement proteins which would otherwise evoke a cellular immune response resulting in cell lysis, 1% non-essential amino acids, 50 μg/mL gentamicin and 400 μg/mL G418 (vector selected reagent). Colorectal and melanoma cells were maintained in RPMI 1640 supplemented with 10% FBS.” left out
as §2, §4, §5
as §7, with “Previous assays had been carried out to verify that cell viability was not affected by the amount of DMSO added into the test compound-treated wells.” left out
as §8, with “crystals.” for “crystals. The medium and any unconverted MTT was aspirated, 150 μL of DMSO was added to each well, and the plates were shaken on a plate shaker (Stuart Scientific 503) to ensure complete formazan solubilisation.”
(§9) The intensity of absorbance is directly proportional to cell viability.

Glioma U373M (MGMT+) = experiment: MTT assay for 7-day toxicity assay; details: Glioma U373M (MGMT+), 7-day MTT, single determinations, read-out: GI50
Protocol: as §1, with “Glioma cells were routinely cultured in Costar tissue culture flasks in RPMI 1640 liquid medium (containing 0.3 g/L L-glutamine and 2 g/L sodium bicarbonate) supplemented with 10% heat inactivated FBS (55-59° C.) for 1 hour to denature complement proteins which would otherwise evoke a cellular immune response resulting in cell lysis, 1% non-essential amino acids, 50 μg/mL gentamicin and 400 μg/mL G418 (vector selected reagent). Colorectal and melanoma cells were maintained in RPMI 1640 supplemented with 10% FBS.” left out
as §2, §4, §5
as §7, with “Previous assays had been carried out to verify that cell viability was not affected by the amount of DMSO added into the test compound-treated wells.” left out
as §8, with “crystals.” for “crystals. The medium and any unconverted MTT was aspirated, 150 μL of DMSO was added to each well, and the plates were shaken on a plate shaker (Stuart Scientific 503) to ensure complete formazan solubilisation.”
as §9

Glioma SNB19M (MGMT+) = experiment: MTT assay for 7-day toxicity assay; details: Glioma SNB19M (MGMT+), 7-day MTT, single determinations
Protocol: as §1, with “Glioma cells were routinely cultured in Costar tissue culture flasks in RPMI 1640 liquid medium (containing 0.3 g/L L-glutamine and 2 g/L sodium bicarbonate) supplemented with 10% heat inactivated FBS (55-59° C.) for 1 hour to denature complement proteins which would otherwise evoke a cellular immune response resulting in cell lysis, 1% non-essential amino acids, 50 μg/mL gentamicin and 400 μg/mL G418 (vector selected reagent). Colorectal and melanoma cells were maintained in RPMI 1640 supplemented with 10% FBS.” left out
as §2, §4, §5
as §7, with “Previous assays had been carried out to verify that cell viability was not affected by the amount of DMSO added into the test compound-treated wells.” left out
as §8, with “crystals.” for “crystals. The medium and any unconverted MTT was aspirated, 150 μL of DMSO was added to each well, and the plates were shaken on a plate shaker (Stuart Scientific 503) to ensure complete formazan solubilisation.”
as §9

Glioma U373V (MGMT low) = experiment: MTT assay for 7-day toxicity assay; details: Glioma U373V (MGMT low), 7-day MTT, single determinations, read-out: GI50
Protocol: as §1, with “Glioma cells were routinely cultured in Costar tissue culture flasks in RPMI 1640 liquid medium (containing 0.3 g/L L-glutamine and 2 g/L sodium bicarbonate) supplemented with 10% heat inactivated FBS (55-59° C.) for 1 hour to denature complement proteins which would otherwise evoke a cellular immune response resulting in cell lysis, 1% non-essential amino acids, 50 μg/mL gentamicin and 400 μg/mL G418 (vector selected reagent). Colorectal and melanoma cells were maintained in RPMI 1640 supplemented with 10% FBS.” left out
as §2, §4, §5
as §7, with “Previous assays had been carried out to verify that cell viability was not affected by the amount of DMSO added into the test compound-treated wells.” left out
as §8, with “crystals.” for “crystals. The medium and any unconverted MTT was aspirated, 150 μL of DMSO was added to each well, and the plates were shaken on a plate shaker (Stuart Scientific 503) to ensure complete formazan solubilisation.”
as §9

SMILES	GI50 [1]	GI50 ([2]; Homo sapiens, HCT-116, 168 h)	GI50 [3]	GI50 (Colon DLD1)	GI50 (Glioma SNB19V (MGMT−); 168 h, read-out: GI50)	GI50 (Glioma SNB19V (MGMT−); read-out: GI50)	GI50 (Glioma U373M (MGMT+); 168 h)	GI50 (Glioma U373M (MGMT+))	GI50 (Glioma SNB19M (MGMT+); 168 h, read-out: GI50)	GI50 (Glioma SNB19M (MGMT+); read-out: GI50)	activity in words [6]	GI50 (Glioma U373V (MGMT low); 168 h)	GI50 (Glioma U373V (MGMT low))	further results
NC(=O)c1ncn2c(=O)n(Cc3ccco3)nnc12 [PX-004]	27.2 µM	70.9 µM	53.4 µM	45.4 µM										GI50 [2]: 55.6 µM; GI50 ([4]; Homo sapiens, MRC5, 168 h): 60.3 µM; GI50 [4]: 55.5 µM; GI50 ([5]; 168 h): 50.1 µM; GI50 [5]: 52.5 µM
CCOC(=O)CCn1nnc2c(C(N)=O)ncn2c1=O [LL-002, Ethyl 3-(8-carbamoyl-oxoimidazo[5,1-d][1,2,3,5]tetrazin-3(4H)-yl)propanoate]					447 µM	288 µM	156 µM	131 µM	248 µM	261 µM				fold less active than the acetic acid ester derivatives LL-003 and PX-016 ([6]; Table 10, glioma cell lines): > 10 fold
NC(=O)c1ncn2c(=O)n(CCc3ccccc3)nnc12 [DD-001, 4-oxo-3-phenethyl-3,4-dihydroimidazo[5,1-d][1,2,3,5]tetrazine-8-carboxamide]	498 µM	302 µM	424 µM	385 µM										GI50 (Glioma SNB19V (MGMT−); 168 h): 77 µM; GI50 (Glioma SNB19V (MGMT−)): 128 µM and 91.1 µM; GI50 (Glioma SNB19M (MGMT+); 168 h): 95 µM; GI50 (Glioma SNB19M (MGMT+)): 70.2 µM and 92.6 µM
COC(=O)Cn1nnc2c(C(N)=O)ncn2c1=O [LL-003, Methyl 2-(8-carbamoyl-4-oxoimidazo[5,1-d][1,2,3,5]tetrazin-3(4H)-yl)acetate]					21.3 µM	29.7 µM	25.4 µM	33.7 µM	34.8 µM	33.5 µM	surprising efficacy	9.6 µM	11.6 µM	
NC(=O)Cn1nnc2c(C(N)=O)ncn2c1=O [JJ-001, 2-(8-Carbamoyl-oxoimidazo[5,1-d][1,2,3,5]tetrazin-3(4H)-yl)ethanamide]					37.5 µM	38.5 µM	86.7 µM	58 µM	107 µM	83.2 µM	good activity	56.2 µM	74.6 µM	
